Assay results: US11312702B2, “Substituted quinoline-8-carbonitrile derivatives having androgen receptor degradation activity and uses thereof” (ACCUTAR BIOTECHNOLOGY INC., priority 2019, dated 2022)
Numbering of substitutions follows the chain as printed.

Experiments:
Type in all cases: cell-based
androgen receptor (AR) [1] = biological target: T1, androgen receptor (AR) (Homo sapiens, UniProt P10275); experiment: AR degradation activity in VCAP cells (Western blot); conditions: VCAP cell line, 24 hours after administration; DC50 = concentration for 50% target protein degradation
T1 construct: endogenous in cells; host or cells: VCAP
T1 sequence (P10275 1-920): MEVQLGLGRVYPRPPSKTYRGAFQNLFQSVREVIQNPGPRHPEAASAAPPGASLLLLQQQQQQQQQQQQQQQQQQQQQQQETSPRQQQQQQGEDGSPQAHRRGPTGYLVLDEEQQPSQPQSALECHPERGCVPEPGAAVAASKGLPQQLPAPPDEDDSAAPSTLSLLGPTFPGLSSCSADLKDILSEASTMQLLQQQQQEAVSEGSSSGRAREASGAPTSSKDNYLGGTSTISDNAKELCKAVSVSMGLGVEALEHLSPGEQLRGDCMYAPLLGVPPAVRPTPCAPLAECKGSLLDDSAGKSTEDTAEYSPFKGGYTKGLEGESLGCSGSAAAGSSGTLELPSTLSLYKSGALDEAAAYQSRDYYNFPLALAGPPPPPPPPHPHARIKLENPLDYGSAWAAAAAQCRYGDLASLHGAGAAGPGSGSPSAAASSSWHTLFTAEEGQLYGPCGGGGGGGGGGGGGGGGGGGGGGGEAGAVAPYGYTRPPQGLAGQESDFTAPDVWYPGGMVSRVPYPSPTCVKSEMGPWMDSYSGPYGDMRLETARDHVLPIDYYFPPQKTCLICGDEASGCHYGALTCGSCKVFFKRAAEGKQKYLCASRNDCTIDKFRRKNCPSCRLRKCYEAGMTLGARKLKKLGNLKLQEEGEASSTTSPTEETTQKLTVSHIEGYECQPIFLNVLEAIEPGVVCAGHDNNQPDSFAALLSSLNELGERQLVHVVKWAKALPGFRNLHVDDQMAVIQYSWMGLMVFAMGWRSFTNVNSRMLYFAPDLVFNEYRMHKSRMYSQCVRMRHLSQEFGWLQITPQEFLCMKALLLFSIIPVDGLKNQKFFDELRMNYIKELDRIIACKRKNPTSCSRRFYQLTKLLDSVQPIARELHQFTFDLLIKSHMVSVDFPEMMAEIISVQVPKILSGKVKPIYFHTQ
Description: (§1) LNCAP, VCAP and 22Rv1 cells were plated in 24-well plates at 1.5×10E5 cells/well in the RPMI growth medium containing 10% FBS and 1% Penicillin Streptomycin, and then incubated at 37° C. overnight. The following day, the test compound was administered to the cells by using 1000× compound stock solution prepared in DMSO at various concentrations. After administration of the compound, the cells were then incubated at 37° C. for 24 hours. Upon completion, the cells were washed with PBS and protein was collected in Laemmli sample buffer (1×; VWR International). Proteins in cell lysate were separated by SDS-PAGE and transferred to Odyssey nitrocellulose membranes (Licor) with iblot® dry blotting transfer system (ThermoFisher). Nonspecific binding was blocked by incubating membranes with Intercept Blocking Buffer (Licor) for 1 hour at room temperature with gentle shaking. The membranes were then incubated overnight at 4° C. with Primary antibodies rabbit anti-AR (1:1,000, Cell Signaling, 5153) and mouse anti-GAPDH (1:5,000, Santa Cruz Biotechnology, sc-47724) diluted in Intercept Blocking Buffer containing 0.1% Tween 20. After washing 3 times with TBS-T, the membranes were incubated with IRDye® […] goat anti-mouse IgG (1:20,000, Licor) or IRDye®8000W goat anti-rabbit IgG (1:20,000, Licor) for 1 hour. After TBS-T washes, membranes were rinsed in TBS and scanned on Odyssey® CLx Imaging System (Licor). The bands were quantified using Image Studio™ Software (Licor).
(§2) Table 4 summarizes the androgen receptor (AR) degradative activity and cell growth inhibition of exemplary compounds in (a) LNCAP, VCAP, and 22Rv1 cell lines 24 hours after administration of the compound; (b) RAMOS cell line 3 days after administration of the compound; and (c) VCAP cell line 6 days after administration of the compound. DC50: compound concentration needed for 50% target protein degradation.

androgen receptor (AR) [2] = biological target: T2, androgen receptor (AR) (Homo sapiens, UniProt P10275, T878A); experiment: AR degradation activity in LNCAP cells (Western blot); conditions: LNCAP cell line, 24 hours after administration; DC50 = concentration for 50% target protein degradation
T2 construct: endogenous in cells; host or cells: LNCAP
T2 sequence (P10275 1-920 T878A): T1 sequence (P10275 1-920) with T878A
Description: as §1, §2

VCAP cells = experiment: Cell growth inhibition for VCAP cells (CellTiter-Glo); conditions: Homo sapiens, 144 h; VCAP cell line, 6 days after administration, 0.1 nM R1881, charcoal-stripped FBS
Description: VCAP cells (ATCC) were seeded in 96-well plates at 3000 cell/well in 80 μl of DMEM growth medium containing 10% charcoal-stripped FBS (CSS) and 1% Penicillin/Streptomycin. Cells were incubated at 37° C. overnight. The following day, the test compound was administered to the cells by using 10× compound stock solution prepared in growth medium at various concentrations. Four hours later, 0.1 nM R1881 (Sigma) was administered to the cells by using 10× compound stock solution prepared in growth medium. 0.1% DMSO with or without 0.1 nM R1881 was administered as control. Cells were then incubated at 37° C. for 6 days. Before CelTiter-Glo assay, the plates were equilibrated at room temperature for approximately 10 minutes. 100 ul of CellTiter-Glo® Reagent (Promega) was added to each well. The plates were then incubated at room temperature for 10 minutes and luminescence was recorded by EnSpire plate reader (PerkinElmer).
as §2

RAMOS cells = experiment: Cell growth inhibition for Ramos cells (CellTiter-Glo); conditions: Homo sapiens, 72 h; RAMOS cell line, 3 days after administration
Description: RAMOS cells (ATCC) were seeded in 96-well plates at 16,000 cell/well in 90 μl of RPMI growth medium containing 10% Heat-Inactivated Fetal Bovine Serum and 1% Penicillin/Streptomycin. The test compound was administered to the cells by using 10× compound stock solution prepared in growth medium at various concentrations. After administration of the compound, cells were then incubated at 37° C. for 3 days. Before CellTiter-Glo assay, the plates were equilibrated at room temperature for approximately 10 minutes. 100 ul of CellTiter-Glo® Reagent (Promega) was added to each well. The plates were then incubated at room temperature for 10 minutes and luminescence was recorded by EnSpire plate reader (PerkinElmer).
as §2

Compound | DC50 (androgen receptor (AR) [1]) [nM] | DC50 (androgen receptor (AR) [2]) [nM] | GI50 (VCAP cells) [nM] | GI50 (RAMOS cells) [nM]
CC1(C)[C@H](NC(=O)c2cnc(N3CCC(CN4CCN(c5ccc6c(c5)CN([C@H]5CCC(=O)NC5=O)C6=O)CC4)CC3)nc2)C(C)(C)[C@H]1Oc1ccc(C#N)c2ncccc12 [Compound 2-30] |  | 0.2 | 11.5 | > 3000
CC1(C)C(NC(=O)c2ccc(N3CCC(CN4CCN(c5ccc6c(c5)C(=O)N(C5CCC(=O)NC5=O)C6=O)CC4)CC3)nc2)C(C)(C)C1Oc1ccc(C#N)c2ncccc12 (stereo not drawn) [Compound 2-13, N-(1,3-trans)-3-((8-cyanoquinolin-5-yl)oxy)-2,2,4,4-tetramethylcyclobutyl)-6-(4-((4-(2-(2,6-dioxopiperidin-3-yl)-1,3-dioxoisoindolin-5-yl)piperazin-1-yl)methyl)piperidin-1-yl)nicotinamide] | 0.7 | 0.7 | 47.6 | > 3000
CC1(C)[C@H](NC(=O)c2ccc(N3CCC(CN4CCN(c5ccc6c(c5)C(=O)N(C5CCC(=O)NC5=O)C6=O)CC4)CC3)nn2)C(C)(C)[C@H]1Oc1ccc(C#N)c2ncccc12 (stereo partly drawn) [Compound 2-19] | 1 | 0.5 |  | 
CC1(C)C(NC(=O)c2cnc(N3CCC(CN4CCN(c5ccc6c(c5)C(=O)N(C5CCC(=O)NC5=O)C6=O)CC4)CC3)nc2)C(C)(C)C1Oc1ccc(C#N)c2ncccc12 (stereo not drawn) [Compound 2-18, N-(1,3-trans)-3-((8-cyanoquinolin-5-yl)oxy)-2,2,4,4-tetramethylcyclobutyl)-2-(4-((4-(2-(2,6-dioxopiperidin-3-yl)-1,3-dioxoisoindolin-5-yl)piperazin-1-yl)methyl)piperidin-1-yl)pyrimidine-5-carboxamide] | 0.4 | 0.4 |  | 

The next lines start with the values.

DC50 (androgen receptor (AR) [1]) [nM] | DC50 (androgen receptor (AR) [2]) [nM] | GI50 (VCAP cells) [nM] | GI50 (RAMOS cells) [nM] | Compound
1.8 | 2 | 31.2 | > 3000 | CC1(C)C(NC(=O)c2ccc(N3CCC(CCN4CCN(c5ccc6c(c5)C(=O)N(C5CCC(=O)NC5=O)C6=O)CC4)CC3)cc2)C(C)(C)C1Oc1ccc(C#N)c2ncccc12 (stereo not drawn) [Compound 2-43, N-(1,3-trans)-3-((8-cyanoquinolin-5-yl)oxy)-2,2,4,4-tetramethylcyclobutyl)-4-(4-(2-(4-(2-(2,6-dioxopiperidin-3-yl)-1,3-dioxoisoindolin-5-yl)piperazin-1-yl)ethyl)piperidin-1-yl)benzamide]
 | 0.5 | 11 | > 3000 | CC1(C)[C@H](NC(=O)c2ccc(N3CCC(CN4CCN(c5ccc6c(c5)CN(C5CCC(=O)NC5=O)C6=O)CC4)CC3)c(F)c2)C(C)(C)[C@H]1Oc1ccc(C#N)c2ncccc12 (stereo partly drawn) [Compound 2-51, N-((1r,3r)-3-((8-cyanoquinolin-5-yl)oxy)-2,2,4,4-tetramethylcyclobutyl)-4-(4-((4-(2-(2,6-dioxopiperidin-3-yl)-1-oxoisoindolin-5-yl)piperazin-1-yl)methyl)piperidin-1-yl)-3-fluorobenzamide]
 | 0.4 | 11.9 |  | CC1(C)[C@H](NC(=O)c2ccc(N3CCC(CN4CCN(c5cc6c(cc5F)C(=O)N([C@H]5CCC(=O)NC5=O)C6)CC4)CC3)c(F)c2)C(C)(C)[C@H]1Oc1ccc(C#N)c2ncccc12 [Compound 2-53, N-((1,3-trans)-3-((8-cyanoquinolin-5-yl)oxy)-2,2,4,4-tetramethylcyclobutyl)-4-(4-((4-(2-((S)-2,6-dioxopiperidin-3-yl)-6-fluoro-1-oxoisoindolin-5-yl)piperazin-1-yl)methyl)piperidin-1-yl)-3-fluorobenzamide]
 | 0.6 | 9.2 | > 3000 | CC1(C)C(NC(=O)c2ccc(N3CCC(CN4CCN(c5ccc6c(c5)CN([C@H]5CCC(=O)NC5=O)C6=O)CC4)CC3)nn2)C(C)(C)C1Oc1ccc(C#N)c2ncccc12 (stereo partly drawn) [Compound 2-31, N-((1,3-trans)-3-((8-cyanoquinolin-5-yl)oxy)-2,2,4,4-tetramethylcyclobutyl)-6-(4-((4-(2-((S)-2,6-dioxopiperidin-3-yl)-1-oxoisoindolin-5-yl)piperazin-1-yl)methyl)piperidin-1-yl)pyridazine-3-carboxamide]
 | 1.4 |  |  | CC1(C)C(NC(=O)c2ccc(N3CCC(CN4CCN(c5cc6c(cc5F)C(=O)N(C5CCC(=O)NC5=O)C6=O)CC4)CC3)nc2)C(C)(C)C1Oc1ccc(C#N)c2ncccc12 (stereo not drawn) [Compound 2-36, N-((1,3-trans)-3-((8-cyanoquinolin-5-yl)oxy)-2,2,4,4-tetramethylcyclobutyl)-6-(4-((4-(2-(2,6-dioxopiperidin-3-yl)-6-fluoro-1,3-dioxoisoindolin-5-yl)piperazin-1-yl)methyl)piperidin-1-yl)nicotinamide]
